# “And” between values parts separate entries of the source, which are not always exact repeats. Equal entries are not always repeated.
# Columns and labels:
# [1] = tested on: MDA-MB-468 cells; test: cell proliferation studies; type: cell-based, human
# [2] = preclinical pharmacology of safingol; settings: mouse, in vivo, mice
# Description: Based on the mice studies applicants have predicted that in order to achieve meaningful chemopotentiation with either DOX or cisplatin applicants need to deliver the equivalent mouse dose of 5 mg/kg to 20 mg/kg safingol. […] From the pharmacology data obtained thus far from the patients treated with escalating doses of safingol and 45 mg/m^2 of DOX, it appears that applicants are approaching these target levels.
# [3] = tested on: PKC; settings: cited from earlier work
# [4] = biological target: cyclic-adenosine monophosphate-dependent protein kinase A; settings: read-out: concentration for 50% inhibition of protein kinase A; safingol; cited from earlier work
# [5] = intravenous safingol in emulsion; cited from earlier work
# [6] = tested on: 16C mammary carcinoma; settings: safingol 5 to 20 mg/kg; cited from earlier work
# [7] = biological target: case in kinase; settings: read-out: concentration for 50% inhibition of case in kinase; safingol; cited from earlier work
# [8] = rat, in vivo; cited from earlier work
# [9] = tested on: MKN-74; test: cytotoxicity, Alamar Blue Assay; type: cell-based, human; settings: 24 hours; RO 32-2241 10^-6 M, Mitomycin-C 5 μg/ml
# Source text: It has been shown that PKC activity can act as an antagonist to apoptosis, whereas PKC inhibition can promote apoptosis. These observations imply that one function of PKC stimulated processes is to inhibit the induction of programmed cell death. Thus, anti-tumor effects of chemotherapeutic agents may be potentiated by PKC inhibitors that contribute to the induction of apoptosis after drug-induced damage. In order to test this hypothesis we have used the human gastric cancer cell MKN-74 to determine whether RO 32-2241 would enhance the cytotoxic effect of the chemotherapeutic agent Mitomycin-C (MMC). Cytotoxicity was measured and quantified using the Alamar Blue Assay. Cells were treated according to one of four conditions: (i) no drug (control) for 24 hours, (ii) RO 32-2241 alone at 10–6 M, (iii) Mitomycin-C alone at 5 μg/ml for 24 hours, (iv) the combination of RO 32-2241 (10^-6 M) and Mitomycin-C (5 μg/ml) for 24 hours. The results are summarized below for percent survival: […]
# [10] = tested on: SK-GT-1; test: clonogenic assay, resistance relative to MKN-74; type: cell-based, human; settings: clonogenic survival ratio, 10 μg/ml CDDP, 5 μg/ml MMC, 50 FM 5-FU
# Source text: (§1) The basis of drug resistance in these disease has not been well defined. […] For gastric cancer applicants have been successful in establishing five long-term cell lines, SK-GT-1, SK-GT-2, SK-GT-4, SK-GT-5, and SK-GT-6 for Sloan Kettering Gastric Tumor (12,13) none of which express P-glycoprotein (14). Yet, all these tumors are resistant to chemotherapy and to the induction of apoptosis. Applicants have reported that the relative sensitivity of these gastric cancer cells to chemotherapy is influenced by their p53 status (14).
# [11] = tested on: MKN-74; test: clonogenic assay, resistance relative to MKN-74; type: cell-based, human; settings: MKN-74 (reference); 10 μg/ml CDDP, 5 μg/ml MMC, 50 FM 5-FU
# Source text: as §1
# [12] = tested on: SK-GT-5; test: clonogenic assay, resistance relative to MKN-74; type: cell-based, human; settings: 10 μg/ml CDDP, 5 μg/ml MMC, 50 FM 5-FU
# Source text: as §1
# [13] = tested on: SK-GT-2; test: clonogenic assay, resistance relative to MKN-74; type: cell-based, human; settings: 10 μg/ml CDDP, 5 μg/ml MMC, 50 FM 5-FU
# Source text: as §1
# [14] = tested on: NU-GC-4; test: clonogenic assay, resistance relative to MKN-74; type: cell-based, human; settings: 10 μg/ml CDDP, 5 μg/ml MMC
# Source text: as §1
# [15] = tested on: SK-GT-2 cells; test: apoptosis by QFM, Hoechst-33258 staining; type: cell-based, human; settings: 24 hours
# Description: (i) Safingol enhances MMC-induced apoptosis: SK-GT-5 cells, which have a mutated p53 gene (9), were treated with safingol in the presence or absence of MMC for 24 hours. For determination of apoptosis SK-GT-5 cells were treated according to one of several conditions: (i) no drug (control) for 24 hours, (ii) Safingol alone (50 μM) for 24 hours. (This concentration represents the highest non-toxic dose of safingol for the SK-GT-5 cells, as determined by cell proliferation studies, and slightly exceeds the safingol concentration (30 μM) which inhibits PKC enzyme activity by 50% in vitro.), (iii) Mitomycin-C alone (2.5 μg/ml) for 24 hours, (iv) Mitomycin-C alone (5 μg/ml) for 24 hours, (v) the combination of safingol (50 μM) and Mitomycin-C (2.5 μg/ml) for 24 hours, (vi) the combination of safingol (50 μM) and Mitomycin-C (5 μg/ml) for 24 hours. Apoptosis was measured by quantitative fluorescent microscopy (QFM) of nuclear changes induced by apoptosis, as determined by bisbenzimide trihydrochloride (Hoescht-33258) staining of condensed nuclear chromatin (3,5). For the QFM duplicate samples of 500 cells each were counted and scored for the incidence of apoptotic chromatin condensation using an Olympus BH-2 fluorescence microscope.
# (ii) UCN-01 enhances MMC-induced apoptosis: SK-GT-2 cells, which have a mutation in p53, were treated with increasing concentrations of UCN-01 in the presence or absence of a fixed dose of MMC for 24 hours.
# Both UCN-01 and Flavo inhibit PKC. These drugs are cytotoxic to tumor cells and have been reported to induce apoptosis. […] In order to test this hypothesis we elected to treat gastric cancer cells, MKN-74 and SK-GT-2, as well as breast cancer cells, MDA-MB-468, with UCN-01 (7.5 to 10 μM) or Flavo (300 nM) in the presence or absence of MMC (5 μg/ml) or Taxol (50 μM) for 24 hours. Induction of apoptosis was estimated by counting the frequency of condensed nuclear chromatin with Hoechst-33258 stain in duplicate samples of 400 cells.
# [16] = tested on: MKN-74; test: cell viability, trypan blue dye exclusion; type: cell-based, human; settings: 24 hours, single drug or concomitant; bryostatin 1 μM, Mitomycin-C 1 μg/ml, Taxol 50 μM, Cisplatin 50 μM
# Source text: Recently our laboratory has studied the effects of combining bryostatin with chemotherapy both in vitro and in vivo against solid tumors. For our in vitro studies, we have been using the human gastric cancer cell line MKN-74. Cytotoxicity has been examined both by cell viability assays using trypan blue dye exclusion assays and by the induction of apoptosis using quantitative fluorescent microscopy.
compound,measurement,setting,value
"CCCCCCCCCCCCCCC[C@H](O)[C@@H](N)CO [safingol, L-threo-dihydrosphingosine]",highest non-toxic dose (cell proliferation studies),[1],50 µM
same,AUC,[2]; 5 mg/kg safingol,668 ng·h/mL
same,Cmax,[2]; 5 mg/kg safingol,1800 ng/mL
same,AUC,[2]; 20 mg/kg safingol,2700 ng·h/mL
same,Cmax,[2]; 20 mg/kg safingol,7020 ng/mL
same,concentration range that inhibits PKC activity,[3],micromolar ranges
same,IC50,"[3]; safingol, in vitro, read-out: concentration which inhibits PKC enzyme activity by 50%",33 µM and 30 µM
same,IC50,[4],> 218 µM
same,clinical pathology and histopathology findings,[5],venous irritation and transient intravascular hemolysis
same,"effect on tumor cell growth, single agent",[6],no effect on inhibiting tumor cell growth
same,IC50,[7],> 218 µM
same,potentiation of toxicity of chemotherapeutic agents,[8],did not potentiate the myelotoxicity of these agents
"CO[C@@]12[C@H](COC(N)=O)C3=C(C(=O)C(C)=C(N)C3=O)N1C[C@@H]1N[C@@H]12 [MMC, Mitomycin-C]",Percent survival,[9],87%
same,Fold-Increase in Resistance Relative to MKN-74 (p53wt),[10],166X
same,Fold-Increase in Resistance Relative to MKN-74 (p53wt),[11],1X
same,Fold-Increase in Resistance Relative to MKN-74 (p53wt),[12],55X
same,Fold-Increase in Resistance Relative to MKN-74 (p53wt),[13],106X
same,Fold-Increase in Resistance Relative to MKN-74 (p53wt),[14],10X
same,percentage of cells undergoing apoptosis (QFM),[15]; MMC alone 5.0 μg/ml,7%±3%
same,"induction of apoptosis (condensed chromatin, 400 cells)","[15]; UCN-01 7.5 to 10 μM, MMC 5 μg/ml",11% ± 2
same,% of Cells Alive,[16],76%

# Reference: US7045495B2 (Sloan-Kettering Institute for Cancer Research, priority 1996, dated 2006)
